Measurements from patent US11091478B2 (Fochon Pharmaceuticals, Ltd., priority 2017, dated 2021).

System: DOHH2 cells
Assay: Cell proliferation assay (MTS), DOHH2 cells, 120 h
Type: cell-based
Conditions: Homo sapiens, DOHH-2, 120 h
Source text: Cell Proliferation Assays
MTS testing kit was purchased from Promega. The RPMI-1640, Fetal bovine serum and Penicillin-Streptomycin were purchased from Gibco. Dimethyl sulfoxide (DMSO) was purchased from Sigma.
To investigate whether a compound is able to inhibit the activity of BCL-2 in cells, a mechanism-based assay using DOHH2 (DSMZ No.® ACC 47) and RS4;11 (ATCC® CRL-1873™) cell was developed. In this assay, inhibition of Bcl-2 was detected by the inhibition of DOHH2 cells proliferation. DOHH2 cells were cultured in culture flasks to 40-80% confluence in RPMI-1640 plus 10% fetal bovine serum. Cells were collected and plated onto 96-well plates at desired cell density (5000 cells/well). Plates were incubated overnight at 37° C., with 5% CO2 to adhere. Compounds were added to the plates, and the final compound concentrations were 10000, 3333, 1111, […], 124, 41, 14, 4.6 and 1.5 nM. Plates plated with DOHH2 or RS4;11 cells were placed at 37° C., with 5% CO2 for 120 h (DOHH2) or 72 h (RS4;11) respectively. 20 μl MTS/100 μl medium mixture solution were added to each well and incubate the plates for exactly 2 hours. The reaction was stopped by adding 25 μl 10% SDS per well. Measure absorbance at 490 nm and 650 nm (reference wavelength). IC50 was calculated using GraphPad Prism 5.0.
Select compounds prepared as described above were assayed according to the biological procedures described herein.

SMILES | IC50 [nM]
CC1(C)CCC(CN2CCN(c3ccc(C(=O)NS(=O)(=O)c4cc5c(c([N+](=O)[O-])c4)N[C@@H](CCOC(=O)N4CCOCC4)CO5)c(Oc4cnc5[nH]ccc5c4)c3)CC2)=C(c2ccc(Cl)cc2)C1 [Example 2-135, (S)-2-(7-(N-(2-((1H-pyrrolo[2,3-b]pyridin-5-yl)oxy)-4-(4-((4′-chloro-5,5-dimethyl-3,4,5,6-tetrahydro-[1,1′-biphenyl]-2-yl)methyl)piperazin-1-yl)benzoyl)sulfamoyl)-5-nitro-3,4-dihydro-2H-benzo[b][1,4]oxazin-3-yl) ethyl morpholine-4-carboxylate] | 186
CC1(C)CCC(CN2CCN(c3ccc(C(=O)NS(=O)(=O)c4cc5c(c([N+](=O)[O-])c4)N[C@H](CNS(C)(=O)=O)CO5)c(Oc4cnc5[nH]ccc5c4)c3)CC2)=C(c2ccc(Cl)cc2)C1 [Example 2-136, (R)-2-((1H-pyrrolo[2,3-b]pyridin-5-yl)oxy)-4-(4-((4′-chloro-5,5-dimethyl-3.4.5.6-tetra-hydro-[1,1′-biphenyl]-2-yl)methyl)piperazin-1-yl)-N-((3-(methylsulfonamidomethyl)-5-nitro-3,4-dihydro-2H-benzo[b][1,4]oxa-zin-7-yl)sulfonyl)benzamide] | 378
CCS(=O)(=O)NC[C@@H]1COc2cc(S(=O)(=O)NC(=O)c3ccc(N4CCN(CC5=C(c6ccc(Cl)cc6)CC(C)(C)CC5)CC4)cc3Oc3cnc4[nH]ccc4c3)cc([N+](=O)[O-])c2N1 [Example 2-137, (R)-2-((1H-pyrrolo[2,3-b]pyridin-5-yl)oxy)-4-(4-((4′-chloro-5,5-dimethyl-3,4,5,6-tetra-hydro-[1,1′-biphenyl]-2-yl)methyl)piperazin-1-yl)-N-((3-(ethylsulfonamidomethyl)-5-nitro-3,4-dihydro-2H-benzo[b][1,4]oxazin-7-yl)sulfonyl)benzamide] | 139
CC1(C)CCC(CN2CCN(c3ccc(C(=O)NS(=O)(=O)c4cc5c(c([N+](=O)[O-])c4)N[C@H](CN4CCOC4=O)CO5)c(Oc4cnc5[nH]ccc5c4)c3)CC2)=C(c2ccc(Cl)cc2)C1 [Example 2-146, (R)-2-((1H-pyrrolo[2,3-b]pyridin-5-yl)oxy)-4-(4-((4′-chloro-5,5-dimethyl-3,4,5,6-tetra-hydro-[1,1′-biphenyl]-2-yl)methyl)piperazin-1-yl)-N-((5-nitro-3-((2-oxooxazolidin-3-yl)methyl)-3,4-dihydro-2H-benzo[b][1,4]oxazin-7-yl)sulfonyl)benzamide] | 160
CC1(C)CCC(CN2CCN(c3ccc(C(=O)NS(=O)(=O)c4cc5c(c([N+](=O)[O-])c4)N[C@H](c4ccccc4)CO5)c(Oc4cnc5[nH]ccc5c4)c3)CC2)=C(c2ccc(Cl)cc2)C1 [Example 2-165, (R)-2-((1H-pyrrolo[2,3-b]pyridin-5-yl)oxy)-4-(4-((4′-chloro-5,5-dimethyl-3,4,5,6-tetra-hydro-[1,1′-biphenyl]-2-yl)methyl)piperazin-1-yl)-N-((5-nitro-3-phenyl-3,4-dihydro-2H-benzo[b][1,4]oxazin-7-yl)sulfonyl)benza-mide] | 77
CC1(C)CCC(CN2CCN(c3ccc(C(=O)NS(=O)(=O)c4cc5c(c([N+](=O)[O-])c4)N[C@H](c4ccc(Cl)cc4)CO5)c(Oc4cnc5[nH]ccc5c4)c3)CC2)=C(c2ccc(Cl)cc2)C1 [Example 2-167, (R)-2-((1H-pyrrolo[2,3-b]pyridin-5-yl)oxy)-4-(4-((4′-chloro-5,5-dimethyl-3,4,5,6-tetra-hydro-[1,1′-biphenyl]-2-yl)methyl)piperazin-1-yl)-N-((3-(4-chlorophenyl)-5-nitro-3,4-dihydro-2H-benzo[b][1,4]oxazin-7-yl)sulfo-nyl)benzamide] | 29
COc1ccc([C@@H]2COc3cc(S(=O)(=O)NC(=O)c4ccc(N5CCN(CC6=C(c7ccc(Cl)cc7)CC(C)(C)CC6)CC5)cc4Oc4cnc5[nH]ccc5c4)cc([N+](=O)[O-])c3N2)cc1 [Example 2-169, (R)-2-((1H-pyrrolo[2,3-b]pyridin-5-yl)oxy)-4-(4-((4′-chloro-5,5-dimethyl-3,4,5,6-tetra-hydro-[1,1′-biphenyl]-2-yl)methyl)piperazin-1-yl)-N-((3-(4-methoxyphenyl)-5-nitro-3,4-dihydro-2H-benzo[b][1,4]oxazin-7-yl)sulfonyl)benzamide] | 39
CC1(C)CCC(CN2CCN(c3ccc(C(=O)NS(=O)(=O)c4cc5c(c([N+](=O)[O-])c4)N[C@H](c4ccc(C#N)cc4)CO5)c(Oc4cnc5[nH]ccc5c4)c3)CC2)=C(c2ccc(Cl)cc2)C1 [Example 2-170, (R)-2-((1H-pyrrolo[2,3-b]pyridin-5-yl)oxy)-4-(4-((4′-chloro-5,5-dimethyl-3,4,5,6-tetra-hydro-[1,1′-biphenyl]-2-yl)methyl)piperazin-1-yl)-N-((3-(4-cyanophenyl)-5-nitro-3,4-dihydro-2H-benzo[b][1,4]oxazin-7-yl)sulfo-nyl)benzamide] | 464
CC1(C)CCC(CN2CCN(c3ccc(C(=O)NS(=O)(=O)c4cc5c(c([N+](=O)[O-])c4)N[C@@H](c4ccccn4)CO5)c(Oc4cnc5[nH]ccc5c4)c3)CC2)=C(c2ccc(Cl)cc2)C1 [Example 2-171, (S)-2-((1H-pyrrolo[2,3-b]pyridin-5-yl)oxy)-4-(4-((4′-chloro-5,5-dimethyl-3,4,5,6-tetra-hydro-[1,1′biphenyl]-2-yl)methyl)piperazin-1-yl)-N-((5-nitro-3-(pyridin-2-yl)-3,4-di-hydro-2H-benzo[b][1,4]oxazin-7-yl)sulfonyl) benzamide] | 302
CC1(C)CCC(CN2CCN(c3ccc(C(=O)NS(=O)(=O)c4cc5c(c([N+](=O)[O-])c4)N[C@@H](c4ccccc4)CO5)c(Oc4cnc5[nH]ccc5c4)c3)CC2)=C(c2ccc(Cl)cc2)C1 [Example 2-172, (S)-2-((1H-pyrrolo[2,3-b]pyridin-5-yl)oxy)-4-(4-((4′-chloro-5,5-dimethyl-3,4,5,6-tetra-hydro[1,1′-biphenyl]-2-yl)methyl)piperazin-1-yl)-N-((5-nitro-3-phenyl-3,4-dihydro-2H-benzo[b][1,4]oxazin-7-yl)sulfonyl)benza-mide] | 14
CC1(C)CCC(CN2CCN(c3ccc(C(=O)NS(=O)(=O)c4cc5c(c([N+](=O)[O-])c4)N[C@@H](c4ccc(F)cc4)CO5)c(Oc4cnc5[nH]ccc5c4)c3)CC2)=C(c2ccc(Cl)cc2)C1 [Example 2-173, (S)-2-((1H-pyrrolo[2,3-b]pyridin-5-yl)oxy)-4-(4-((4′-chloro-5,5-dimethyl-3,4,5,6-tetra-hydro-[1,1′-biphenyl]-2-yl)methyl)piperazin-1-yl)-N-((3-(4-fluorophenyl)-5-nitro-3,4-dihydro-2H-benzo[b][1,4]oxazin-7-yl)sulfo-nyl)benzamide] | 24
CC1(C)CCC(CN2CCN(c3ccc(C(=O)NS(=O)(=O)c4cc5c(c([N+](=O)[O-])c4)N[C@@H](c4ccc(Cl)cc4)CO5)c(Oc4cnc5[nH]ccc5c4)c3)CC2)=C(c2ccc(Cl)cc2)C1 [Example 2-174, (S)-2-((1H-pyrrolo[2,3-b]pyridin-5-yl)oxy)-4-(4-((4′-chloro-5,5-dimethyl-3,4,5,6-tetra-hydro-[1,1′-biphenyl]-2-yl)methyl)piperazin-1-yl)-N-((3-(4-chlorophenyl)-5-nitro-3,4-dihydro-2H-benzo[b][1,4]oxazin-7-yl)sulfo-nyl)benzamide] | 23
CC1(C)CCC(CN2CCN(c3ccc(C(=O)NS(=O)(=O)c4cc5c(c([N+](=O)[O-])c4)N[C@H](c4ccc(F)cn4)CO5)c(Oc4cnc5[nH]ccc5c4)c3)CC2)=C(c2ccc(Cl)cc2)C1 [Example 2-178, (R)-2-((1H-pyrrolo[2,3-b]pyridin-5-yl)oxy)-4-(4-((4′-chloro-5,5-dimethyl-3,4,5,6-tetra-hydro-[1,1′-biphenyl]-2-yl)methyl)piperazin-1-yl)-N-((3-(5-fluoropyridin-2-yl)-5-nitro-3,4-dihydro-2H-benzo[b][1,4]oxazin-7-yl)sulfonyl)benzamide] | 28
CC1(C)CCC(CN2CCN(c3ccc(C(=O)NS(=O)(=O)c4cc5c(c([N+](=O)[O-])c4)N[C@@H](Cc4ccccc4Cl)CO5)c(Oc4cnc5[nH]ccc5c4)c3)CC2)=C(c2ccc(Cl)cc2)C1 [Example 2-191, (S)-2-((1H-pyrrolo[2,3-b]pyridin-5-yl)oxy)-4-(4-((4′-chloro-5,5-dimethyl-3,4,5,6-tetra-hydro-[1,1′-biphenyl]-2-yl)methyl)piperazin-1-yl)-N-((3-(2-chlorobenzyl)-5-nitro-3,4-dihydro-2H-benzo[b][1,4]oxazin-7-yl)sulfo-nyl)benzamide] | 153
CC1(C)CCC(CN2CCN(c3ccc(C(=O)NS(=O)(=O)c4cc5c(c([N+](=O)[O-])c4)N[C@@H](c4ccc(F)cn4)CO5)c(Oc4cnc5[nH]ccc5c4)c3)CC2)=C(c2ccc(Cl)cc2)C1 [Example 2-197, (S)-2-((1H-pyrrolo[2,3-b]pyridin-5-yl)oxy)-4-(4-((4′-chloro-5,5-dimethyl-3,4,5,6-tetra-hydro-[1,1′-biphenyl]-2-yl)methyl)piperazin-1-yl)-N-((3-(5-fluoropyridin-2-yl)-5-nitro-3,4-dihydro-2H-benzo[b][1,4]oxazin-7-yl)sulfonyl)benzamide] | 412
